pIC50: −log10 of the molar value.

The target of test [1] is Tyrosine-protein kinase Lck (Homo sapiens, UniProt P06239). The test is described as follows: Inhibition of Lck autophosphorylation using [33P]ATP by scintillation counting.
In test [2] the target is T1, Tyrosine-protein kinase TXK (Homo sapiens, UniProt P42681).
T1 sequence (P42681 whole entry): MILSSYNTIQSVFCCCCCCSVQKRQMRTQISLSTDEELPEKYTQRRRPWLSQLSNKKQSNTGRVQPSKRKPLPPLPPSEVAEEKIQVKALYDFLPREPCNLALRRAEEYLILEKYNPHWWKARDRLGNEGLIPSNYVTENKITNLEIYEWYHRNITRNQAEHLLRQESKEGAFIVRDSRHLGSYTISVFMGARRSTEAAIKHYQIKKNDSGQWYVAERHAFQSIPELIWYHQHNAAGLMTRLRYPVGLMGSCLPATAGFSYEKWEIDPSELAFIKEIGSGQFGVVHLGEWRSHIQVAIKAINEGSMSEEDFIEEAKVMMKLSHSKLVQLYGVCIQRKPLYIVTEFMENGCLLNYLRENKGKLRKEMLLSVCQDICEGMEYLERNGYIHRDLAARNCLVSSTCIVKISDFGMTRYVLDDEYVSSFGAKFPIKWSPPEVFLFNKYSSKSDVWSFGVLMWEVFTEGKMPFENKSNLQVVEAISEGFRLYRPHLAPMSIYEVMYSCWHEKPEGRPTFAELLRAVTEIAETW
The test is described as follows: Inhibition of Txk autophosphorylation using [33P]ATP by scintillation counting.

In test [3] the target is Tyrosine-protein kinase SYK (Homo sapiens, UniProt P43405). The test is described as follows: Inhibition of recombinant N-terminus His6 tagged Syk (343 to 635) autophosphorylation expressed in insect Sf9 cells using [33P]ATP by scintillation counting.
Test [4] has as its target T2, Tyrosine-protein kinase ITK/TSK (Homo sapiens, UniProt Q08881).
T2 sequence (Q08881 whole entry): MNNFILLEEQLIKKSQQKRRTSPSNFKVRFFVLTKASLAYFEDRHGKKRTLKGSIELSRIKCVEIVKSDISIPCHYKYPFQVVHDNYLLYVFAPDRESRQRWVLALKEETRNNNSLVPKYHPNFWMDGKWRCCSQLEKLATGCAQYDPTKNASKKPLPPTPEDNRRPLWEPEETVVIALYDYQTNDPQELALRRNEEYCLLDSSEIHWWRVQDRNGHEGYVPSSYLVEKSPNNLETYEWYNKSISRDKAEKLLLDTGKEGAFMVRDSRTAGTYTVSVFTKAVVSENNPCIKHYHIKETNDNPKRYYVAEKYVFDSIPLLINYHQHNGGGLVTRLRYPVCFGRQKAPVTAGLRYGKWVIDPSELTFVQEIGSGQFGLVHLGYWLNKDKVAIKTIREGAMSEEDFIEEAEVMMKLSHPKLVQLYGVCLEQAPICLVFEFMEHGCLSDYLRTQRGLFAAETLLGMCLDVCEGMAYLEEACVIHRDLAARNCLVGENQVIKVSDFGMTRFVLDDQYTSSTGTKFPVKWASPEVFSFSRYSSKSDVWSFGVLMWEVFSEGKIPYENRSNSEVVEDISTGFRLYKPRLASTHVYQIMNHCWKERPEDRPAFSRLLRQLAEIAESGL
Nature of the test: Inhibition of recombinant N-terminus His6 tagged Itk (357-620) autophosphorylation expressed in insect Sf9 cells using [33P]ATP by scintillation counting.

Tyrosine-protein kinase Lck, sequence (P06239 whole entry): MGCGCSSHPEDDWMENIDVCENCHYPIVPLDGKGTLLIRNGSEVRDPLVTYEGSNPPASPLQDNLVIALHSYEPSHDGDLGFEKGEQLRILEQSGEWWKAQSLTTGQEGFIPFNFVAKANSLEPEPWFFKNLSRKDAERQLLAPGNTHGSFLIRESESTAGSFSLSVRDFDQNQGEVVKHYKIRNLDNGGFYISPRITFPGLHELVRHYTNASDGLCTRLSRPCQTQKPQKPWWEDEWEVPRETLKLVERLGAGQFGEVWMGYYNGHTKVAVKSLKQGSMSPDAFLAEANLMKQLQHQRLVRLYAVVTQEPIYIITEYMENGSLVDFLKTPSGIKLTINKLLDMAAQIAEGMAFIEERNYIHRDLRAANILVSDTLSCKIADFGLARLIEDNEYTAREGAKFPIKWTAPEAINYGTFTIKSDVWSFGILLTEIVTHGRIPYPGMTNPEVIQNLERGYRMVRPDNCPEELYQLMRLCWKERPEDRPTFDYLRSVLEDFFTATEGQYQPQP

A word on the pIC50: it is the negative decadic logarithm of the IC50, by convention in mol/L. With `CCC(O)(CC)c1ccc2cc(-c3n[nH]c4cc(-c5ccccc5)sc34)[nH]c2c1`, the negative logarithm of the IC50 (pIC50) is 6.69 in test [1], 6.36 in test [2] and 5.61 in test [3].

`CCC(O)(CC)c1cc(OCCN2CCOCC2)c2cc(-c3n[nH]c4ccsc34)[nH]c2c1`: the pIC50 is 6.79 in test [1], 7.25 in test [2] and 6.54 in test [3].

As for `CCC(O)(CC)c1ccc2cc(-c3n[nH]c4ccsc34)[nH]c2c1`, the pIC50 in test [1] is 5.96; in test [2], 7.18; in test [3] it was 6.73.

With `CC(C)(O)c1ccc2cc(-c3n[nH]c4ccsc34)[nH]c2c1`, the results for the pIC50 in test [1], in test [4] and in test [2] were 7.19, 8.72 and 7.13, respectively.

As to `Oc1ccc2nc(-c3n[nH]c4ccccc34)[nH]c2c1`, the negative logarithm of the IC50 (pIC50) in test [4] was 6.70.

For `CCC(O)(CC)c1ccc2cc(-c3n[nH]c4cc(C(F)F)sc34)[nH]c2c1`, the pIC50 was 7.41 in test [1] and 7.11 in test [2].

Turning to `CCC(O)(CC)c1ccc2c(-c3ccc(OC)cc3)c(-c3n[nH]c4ccsc34)[nH]c2c1`, the negative logarithm of the IC50 (pIC50) in test [1] is 5.50; in test [2] it was 6.62; in test [3], 6.03.

Values taken from ChEMBL document CHEMBL2016436, “X-ray crystallographic structure-based design of selective thienopyrazole inhibitors for interleukin-2-inducible tyrosine kinase” (Bioorg Med Chem Lett, 2012).
